Results reported in ChEMBL document CHEMBL1201862, “PubChem BioAssay data set” (2004).
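Dose response: 5 concentrations. Exposure: 48 h. Format: 96-well plates. Endpoint: linear interpolation; highest concentration if not reached. Abbreviation: GI50, concentration required for 50% inhibition of growth.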 Calls of active or inactive are those of the source. Cut-off read from the data, not from the text of the source: active = GI50 up to about 1.1 µM and inactive = higher.

How the values were obtained:
Experiment in all cases: growth of human tumour cells (NCI), 48 h
HOP-62 = system: HOP-62
SNB-75 = system: SNB-75
NCI-H460 = system: NCI-H460
MCF7 = system: MCF7
ACHN = system: ACHN
TK-10 = system: TK-10
IGROV-1 = system: IGROV-1
RPMI-8226 = system: RPMI-8226
OVCAR-4 = system: OVCAR-4
K562 = system: K562
SF-539 = system: SF-539
SF-268 = system: SF-268
KM12 = system: KM12
HOP-92 = system: HOP-92
MOLT-4 = system: MOLT-4
SK-MEL-5 = system: SK-MEL-5
Hs-578T = system: Hs-578T
A549 = system: A549
OVCAR-5 = system: OVCAR-5

SMILES | GI50 (HOP-62) | GI50 (SNB-75) | GI50 (NCI-H460) | GI50 (MCF7) | GI50 (ACHN) | GI50 (TK-10) | GI50 (IGROV-1) | GI50 (RPMI-8226) | GI50 (OVCAR-4) | GI50 (K562) | GI50 (SF-539) | GI50 (SF-268) | GI50 (KM12) | GI50 (HOP-92) | GI50 (MOLT-4) | GI50 (SK-MEL-5) | GI50 (Hs-578T) | GI50 (A549) | GI50 (OVCAR-5)
O=C(c1cc2ccccc2cc1O)N1CCCCC1 | 27.4 µM (inactive) | 31.5 µM (inactive) | 27.7 µM (inactive) | 26.4 µM (inactive) | 38.2 µM (inactive) | > 100 µM (inactive) | 13.5 µM (inactive) | 17.6 µM (inactive) | 37.7 µM (inactive) | 21.6 µM (inactive) | 37.3 µM (inactive) | 36.1 µM (inactive) | 33.6 µM (inactive) | 11.4 µM (inactive) | 15.3 µM (inactive) | 20 µM (inactive) | 46 µM (inactive) | – | –
O[C@]12CCCC[C@H]1CCC2 | > 100 µM (inactive) | > 100 µM (inactive) | > 100 µM (inactive) | – | > 100 µM (inactive) | > 100 µM (inactive) | > 100 µM (inactive) | > 100 µM (inactive) | > 100 µM (inactive) | > 100 µM (inactive) | > 100 µM (inactive) | > 100 µM (inactive) | > 100 µM (inactive) | > 100 µM (inactive) | > 100 µM (inactive) | > 100 µM (inactive) | – | > 100 µM (inactive) | > 100 µM (inactive)
Cc1c2ccncc2c(C)c2c1[nH]c1ccc(Oc3ccccc3)cc12 | 1.96 µM (inactive) | 2.86 µM (inactive) | 1.95 µM (inactive) | – | 3.11 µM (inactive) | 8.18 µM (inactive) | 4.13 µM (inactive) | 1.88 µM (inactive) | 2.62 µM (inactive) | 1.92 µM (inactive) | 1.88 µM (inactive) | 3.39 µM (inactive) | 2.6 µM (inactive) | 6.05 µM (inactive) | 2.15 µM (inactive) | 2.97 µM (inactive) | – | 2.25 µM (inactive) | 1.86 µM (inactive)
COc1cc2c(/C=C3/C(=O)Nc4ccc(O)cc43)c(Cl)[nH]c2cc1C | 0.127 µM (active) | 0.143 µM (active) | 0.454 µM (active) | 0.0748 µM (active) | 0.108 µM (active) | 0.398 µM (active) | 0.441 µM (active) | 0.275 µM (active) | 0.562 µM (active) | 0.0382 µM (active) | 0.0447 µM (active) | 0.927 µM (active) | 0.045 µM (active) | 15.9 µM (inactive) | 0.039 µM (active) | 0.0822 µM (active) | 0.0989 µM (active) | 0.397 µM (active) | 0.618 µM (active)
CCOC(=O)C(CO)c1nc2c([nH]c1=O)c(=O)n(C)c(=O)n2C (centres undefined) | > 100 µM (inactive) | – | > 100 µM (inactive) | > 100 µM (inactive) | > 100 µM (inactive) | > 100 µM (inactive) | > 100 µM (inactive) | > 100 µM (inactive) | – | > 100 µM (inactive) | > 100 µM (inactive) | > 100 µM (inactive) | > 100 µM (inactive) | – | – | 0.579 µM (active) | > 100 µM (inactive) | > 100 µM (inactive) | > 100 µM (inactive)
CC1=C(N(C)C)C(=O)c2nc3n(c2C1=O)CCC3OC(N)=O (centres undefined) | 17.6 µM (inactive) | 23.7 µM (inactive) | 15.6 µM (inactive) | – | 16.7 µM (inactive) | 18.2 µM (inactive) | 16.8 µM (inactive) | 16.9 µM (inactive) | 19.9 µM (inactive) | 18.5 µM (inactive) | 17.5 µM (inactive) | 20.1 µM (inactive) | 17.2 µM (inactive) | 14.8 µM (inactive) | 13.1 µM (inactive) | 11.5 µM (inactive) | – | 18.8 µM (inactive) | 19.6 µM (inactive)
COc1ccc(CCNC(=O)Cc2ccccc2CCO)cc1OC | > 100 µM (inactive) | > 100 µM (inactive) | > 100 µM (inactive) | > 100 µM (inactive) | > 100 µM (inactive) | > 100 µM (inactive) | > 100 µM (inactive) | > 100 µM (inactive) | 41.8 µM (inactive) | > 100 µM (inactive) | > 100 µM (inactive) | > 100 µM (inactive) | > 100 µM (inactive) | > 100 µM (inactive) | > 100 µM (inactive) | > 100 µM (inactive) | > 100 µM (inactive) | > 100 µM (inactive) | > 100 µM (inactive)
COC(=O)CC(C(C(=O)OC)C(=O)OC)N1C(=O)OC(c2ccccc2)C1c1ccccc1 (centres undefined) | > 100 µM (inactive) | > 100 µM (inactive) | 94.2 µM (inactive) | – | > 100 µM (inactive) | > 100 µM (inactive) | > 100 µM (inactive) | 45.6 µM (inactive) | > 100 µM (inactive) | > 100 µM (inactive) | > 100 µM (inactive) | > 100 µM (inactive) | > 100 µM (inactive) | > 100 µM (inactive) | > 100 µM (inactive) | > 100 µM (inactive) | – | > 100 µM (inactive) | > 100 µM (inactive)
C[C@]12CC[C@H](O)CC1=CC[C@@H]1C2CC[C@]2(C)C(=O)N(N)C(=O)CC12 (some centres undefined) | > 100 µM (inactive) | 5.38 µM (inactive) | > 100 µM (inactive) | – | > 100 µM (inactive) | > 100 µM (inactive) | > 100 µM (inactive) | > 100 µM (inactive) | > 100 µM (inactive) | > 100 µM (inactive) | > 100 µM (inactive) | > 100 µM (inactive) | > 100 µM (inactive) | > 100 µM (inactive) | > 100 µM (inactive) | > 100 µM (inactive) | – | > 100 µM (inactive) | > 100 µM (inactive)
COc1cc(C2c3cc4c(cc3OC(N3CCOCC3)C2C)OCO4)cc(OC)c1O (centres undefined) | 9.57 µM (inactive) | 1.79 µM (inactive) | 5.09 µM (inactive) | 5.35 µM (inactive) | 12.2 µM (inactive) | 18.7 µM (inactive) | 7.6 µM (inactive) | 8.2 µM (inactive) | 36.6 µM (inactive) | 3.38 µM (inactive) | 5.66 µM (inactive) | 17.7 µM (inactive) | 4.73 µM (inactive) | 12.8 µM (inactive) | 3.18 µM (inactive) | 3.18 µM (inactive) | 3.18 µM (inactive) | 8.91 µM (inactive) | 46.6 µM (inactive)
COc1cc2c3c(c1OCc1ccccc1)NCCC3NCC2 (centres undefined) | > 100 µM (inactive) | 43.7 µM (inactive) | > 100 µM (inactive) | – | – | > 100 µM (inactive) | > 100 µM (inactive) | > 100 µM (inactive) | > 100 µM (inactive) | > 100 µM (inactive) | > 100 µM (inactive) | > 100 µM (inactive) | > 100 µM (inactive) | 86.1 µM (inactive) | > 100 µM (inactive) | > 100 µM (inactive) | – | > 100 µM (inactive) | > 100 µM (inactive)
CCN(CC)c1ccc(C2N3CCCCC3[C@@H]3c4[nH]c5ccccc5c4CCN23)cc1 (some centres undefined) | > 100 µM (inactive) | 6.11 µM (inactive) | 22.3 µM (inactive) | – | 27 µM (inactive) | 27.2 µM (inactive) | 42.8 µM (inactive) | 12.8 µM (inactive) | 36.5 µM (inactive) | 15.2 µM (inactive) | 18.3 µM (inactive) | 22.1 µM (inactive) | – | 38.1 µM (inactive) | 25.5 µM (inactive) | 17.3 µM (inactive) | – | 49.1 µM (inactive) | 51.3 µM (inactive)
CN(C)c1nc(N(C)C)nc(N(C)CN(C)c2nc(N(C)C)nc(N(C)C)n2)n1 | > 100 µM (inactive) | > 100 µM (inactive) | > 100 µM (inactive) | – | > 100 µM (inactive) | > 100 µM (inactive) | > 100 µM (inactive) | > 100 µM (inactive) | > 100 µM (inactive) | > 100 µM (inactive) | > 100 µM (inactive) | > 100 µM (inactive) | > 100 µM (inactive) | > 100 µM (inactive) | > 100 µM (inactive) | > 100 µM (inactive) | – | > 100 µM (inactive) | > 100 µM (inactive)
Cc1ccc2nc(NC(=O)C(=O)CC(=O)c3cccc4ccccc34)sc2c1 | 22.2 µM (inactive) | 16.9 µM (inactive) | 52 µM (inactive) | – | 41.9 µM (inactive) | 24.1 µM (inactive) | 31.7 µM (inactive) | 91.8 µM (inactive) | 16.2 µM (inactive) | 31.5 µM (inactive) | 24.7 µM (inactive) | 32.6 µM (inactive) | 29.1 µM (inactive) | 14.8 µM (inactive) | 42.1 µM (inactive) | 23.1 µM (inactive) | – | 33.6 µM (inactive) | > 100 µM (inactive)
CN1CCN(C)C12C=CC=CC21CC1 | > 100 µM (inactive) | > 100 µM (inactive) | > 100 µM (inactive) | – | > 100 µM (inactive) | > 100 µM (inactive) | > 100 µM (inactive) | > 100 µM (inactive) | > 100 µM (inactive) | > 100 µM (inactive) | > 100 µM (inactive) | > 100 µM (inactive) | > 100 µM (inactive) | 58.9 µM (inactive) | > 100 µM (inactive) | > 100 µM (inactive) | – | > 100 µM (inactive) | > 100 µM (inactive)
CC(N)C(=O)c1ccc(O)cc1 (centres undefined) | > 100 µM (inactive) | > 100 µM (inactive) | > 100 µM (inactive) | – | > 100 µM (inactive) | > 100 µM (inactive) | > 100 µM (inactive) | > 100 µM (inactive) | > 100 µM (inactive) | > 100 µM (inactive) | > 100 µM (inactive) | > 100 µM (inactive) | > 100 µM (inactive) | > 100 µM (inactive) | > 100 µM (inactive) | > 100 µM (inactive) | – | > 100 µM (inactive) | > 100 µM (inactive)
